Data set [1] addresses T1, Fluc (Photinus pyralis, UniProt P08659). Briefly: Steady-state kinetics of luciferase reactions (luminometer). It is filed as biochemical. Conditions: for appKm: pH 8.0, 25 °C; for Relative kcat: relative to 2a compound. The protocol:
(§1) 1.5 Bioluminescence characterizations
(§2) Reactions of luciferases, including Photinus pyralis luciferase (Fluc), Phrixothrix hirtus luciferase (SLR), Pyrearinus termitilluminans […]
(§3) mM D-LH 2 analogues, 3 mM ATP, 6 mM MgCl2, and 10 µM luciferase in 0.2 ml of 100 mM HEPES-NaOH pH 8.0. The bioluminescence (BL) emission characteristics were recorded using a microplate reader in a BL mode (Thermo Scientific, Varioskan, LUX multimode). […]
BL of the
(§4) The reactions were initiated by mixing 25 µl of premixed solution of luciferases/D-LH 2 analogues with 125 µl of 3 mM ATP and 6 mM MgCl2 in 100 mM HEPES-NaOH (pH 8.0). The light intensity (relative light unit, RLU) during 0-300 sec was then collected to represent the overall luciferase activity which was further used for calculating kinetic parameters from the Michaelis-Menten equation. […]

For data set [2], the target named is T1, Fluc. Briefly: BL emission spectra of luciferase-luciferin reactions. Type of data set: biochemical. Conditions: 100 mM HEPES pH 8.0, 25 °C. The protocol:
as §1, §2, §3
(§5) sphere-based multichannel spectrometer with a charge-coupled device (CCD) detector. […]

Data set [3] concerns SLR. The data set is described as follows: Steady-state kinetics of luciferase reactions (luminometer). Type of data set: biochemical, Phrixothrix hirtus. The note with it: for appKm: pH 8.0, 25 °C; for Relative kcat: relative to 2a compound. The protocol:
as §1, §2, §3
BL of the
as §4

Data set [4] deals with Pmluc-WT. Briefly: BL emission spectra of luciferase-luciferin reactions. Conditions: 100 mM HEPES pH 8.0, 25 °C. Type of data set: biochemical, Pyrocoelia miyako. The method, then: as §1, §2, §3, §5
Data set [5] concerns Pmluc-N230S. Briefly: Steady-state kinetics of luciferase reactions (luminometer). Type of data set: biochemical, Pyrocoelia miyako. Conditions: Pmluc-N230S; for appKm: pH 8.0, 25 °C; for Relative kcat: relative to 2a compound. The protocol:
as §1, §2, §3
BL of the
as §4

Data set [6] can be described thus: Absorption and fluorescence spectra of luciferins. It is filed as physicochemical. The note with it: 100 mM HEPES pH 8.0, 25 °C. The method, then:
2.6 Spectra of firefly luciferins
spectrophotometer (Agilent technologies, Cary 100 UV Vis, Cary Series UV-Vis Spectrophotometer).
were recorded by a microplate reader (Thermo Scientific, Varioskan, LUX multimode) in fluorescence mode. The reactions of D-LH 2 […]
Supplementary Table S5. […]
[e] ND denotes “not detectable”. […]

In data set [7] the test system is Pmluc-N230S. The data set is described as follows: BL emission spectra of luciferase-luciferin reactions. It is filed as biochemical, Pyrocoelia miyako. The note with it: 100 mM HEPES pH 8.0, 25 °C.
For data set [8], the system named is SLR. Described as above. Type of data set: biochemical, Phrixothrix hirtus. The note with it: 100 mM HEPES pH 8.0, 25 °C. The method, then: as §1, §2, §3, §5
The test system of data set [9] is Eluc. The data set is described as follows: Steady-state kinetics of luciferase reactions (luminometer). Type of data set: biochemical, Pyrearinus termitilluminans. The note with it: for appKm: pH 8.0, 25 °C; for Relative kcat: relative to 2a compound. The protocol:
as §1, §2, §3
BL of the
as §4

Data set [10] relates to Pmluc-WT. Described as above. It is filed as biochemical, Pyrocoelia miyako. Conditions: for appKm: pH 8.0, 25 °C; for Relative kcat: relative to 2a compound. The method, then: as §1, §2, §3
BL of the
as §4

Data set [11] deals with Eluc. Briefly: BL emission spectra of luciferase-luciferin reactions. It is filed as biochemical, Pyrearinus termitilluminans. The note with it: 100 mM HEPES pH 8.0, 25 °C. The protocol:
as §1, §2, §3, §5

Data set [12] addresses Fluc-ApCPP complex (Photinus pyralis, UniProt P08659). Briefly: biochemical. The note with it: ITC. Type of data set: binding.
For data set [13], the target named is T1, Fluc. The data set is described as follows: Stopped-flow luminometry, single turnover light formation and decay. Type of data set: biochemical. Conditions: Fluc single turnover, 25 °C. The method, then:
1.5 Bioluminescence characterizations […]
One syringe was filled with a solution of 50 µM Fluc, 3 mM ATP, and 6 mM
in both syringes were mixed by a stopped-flow device and measured the light emission at 25 °C in triplicate. […]
2.8 Investigation of bioluminescence kinetics using stopped-flow luminometry
reactions were investigated using a stopped-flow spectrophotometer (employing a light-off mode for detecting the luminescence). One

Data set [14] has as its target T1, Fluc. Briefly: biochemical. The note with it: ITC. Type of data set: binding.
In data set [15] the target is T1, Fluc. Conditions: with Fluc; cited from earlier work.
Data set [16] relates to luciferases. The note with it: cited from earlier work.
Where [17] appears, read: concentration range tested 0-300.

Several values for one entry are separate records, joined by “and”; a condition that tells them apart may be missing. Equal entries are not always repeated.

T1 sequence (P08659 whole entry): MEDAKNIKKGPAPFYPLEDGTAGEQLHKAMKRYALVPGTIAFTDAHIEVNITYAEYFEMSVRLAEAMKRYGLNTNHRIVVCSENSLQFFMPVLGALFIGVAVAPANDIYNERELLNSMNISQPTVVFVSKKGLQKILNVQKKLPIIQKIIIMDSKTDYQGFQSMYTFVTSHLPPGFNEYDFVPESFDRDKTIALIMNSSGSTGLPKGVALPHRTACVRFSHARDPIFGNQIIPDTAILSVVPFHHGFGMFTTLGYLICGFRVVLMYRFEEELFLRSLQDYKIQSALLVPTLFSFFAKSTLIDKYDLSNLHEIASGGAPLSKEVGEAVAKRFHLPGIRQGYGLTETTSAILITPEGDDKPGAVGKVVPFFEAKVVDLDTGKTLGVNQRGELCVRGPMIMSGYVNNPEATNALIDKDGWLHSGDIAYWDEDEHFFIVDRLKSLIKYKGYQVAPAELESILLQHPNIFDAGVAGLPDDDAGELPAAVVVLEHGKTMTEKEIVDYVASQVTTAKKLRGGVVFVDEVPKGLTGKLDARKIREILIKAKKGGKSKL
Sequence of Fluc-ApCPP complex (P08659 whole entry, one chain of several): as the sequence (P08659 whole entry) above

As a reminder, the Kd is the equilibrium constant for the complex coming apart. Turning to `Cc1cc(O)c(C)c2sc(C3=N[C@@H](C(=O)O)CS3)nc12` [Compound 2e, 4′,7′-dimethyl-D-LH2], the appKm in data set [1] is given as 7.1 µM; in data set [3] it was 9.0 µM; in data set [5], 6.6 µM; in data set [9], 19.1 µM; in data set [10] it was 10.2 µM. Besides, the Relative kcat in data set [1] stood at 1.0; in [3] it was 5.5; in data set [5], 6.3; in data set [9], 0.2; in data set [10], 1.2. The “Bioluminescence wavelength (BLλ)” value in [2] was found to be 636 nm; in data set [4], 637 nm; in data set [7] it was 631 nm; in data set [8], 644 nm; in data set [11] it was 583 nm. Besides, in [6], the “Absorption (λmax)” value was 330 nm. Besides, the “Fluorescence (λem)” value in data set [6] was 560 nm and 523–560 nm. Further, in data set [12] (25 °C, preformed Fluc-ApCPP complex, read-out: Dissociation constant (Kd) Fluc-ApCPP: Luciferin), the Kd stood at 864 ± 7 µM. Moreover, the N site in data set [12] (Fluc-ApCCP) came to 0.90. Also, the “G (free energy of binding)” value in [12] (Fluc-ApCCP, 25 °C) is on record as -4.41 kcal/mol. The “H (enthalpy of binding)” value in data set [12] (Fluc-ApCCP, 25 °C) was -80.0 kcal/mol.

Turning to `COc1cc2nc(C3=N[C@@H](C(=O)O)CS3)sc2c(OC)c1O` [Compound 2d, 5′,7′-dimethoxy-D-luciferin], the values for the Substrate inhibition in data set [1] (setting [17]), in data set [3] (setting [17]) and in [10] (setting [17]) were above 0.8 µM, above 16.6 µM and above 0.8 µM, respectively. Besides, the appKm in data set [1] was found to be 0.2 µM; in data set [3], 5.0 µM; in data set [5], 13.3 µM; in data set [9], 34.7 µM; in [10] it was 0.2 µM. Moreover, the Relative kcat in data set [1] is listed as 1.3; in data set [3], 0.8; in data set [5], 0.2; in data set [9] it was 0.1; in data set [10] it was ~ 0.02. In data set [13], the “Observed rate constant (kobs) Light decay Faster phase” value is 0.50 ± 0.00 s⁻¹. Further, the “Observed rate constant (kobs) Light formation” value in data set [13] was 8.13 ± 0.08 s⁻¹. This compound also returned a N site in data set [14] of 0.42. Also, in data set [14] (25 °C), the “G (free energy of binding)” value is recorded as -6.18 kcal/mol. Moreover, in [14] (25 °C), the “H (enthalpy of binding)” value is listed as -5.24 kcal/mol. Further, binding in data set [14] (Table S9) was put at a Kd of 30.4 µM. The “Bioluminescence wavelength (BLλ)” value in data set [2] is listed as 625 nm; in data set [4], 582 nm; in [7], 646 nm; in data set [8], above 630 nm; in data set [8] (listed as 5′,7′-dimethoxy-D-LH2), 663 nm; in data set [11] it was 596 nm. In addition, the “Absorption (λmax)” value in data set [6] is 412 nm.

Take `Cc1c(O)c2ccccc2c2nc(C3=N[C@@H](C(=O)O)CS3)sc12` [Compound 2f, 7′-methylnaphthol-D-luciferin]: the appKm is reported as 2.7 µM in data set [1], 11.6 µM in data set [3] and 24.7 µM in data set [9]. The Relative kcat is 0.1 in data set [1], 1.1 in data set [3], ~ 0.01 in data set [5] and 0.0 in [9]. Also, the “Bioluminescence wavelength (BLλ)” value in data set [2] was 648 nm and > 630 nm; in [8], 634 nm; in [11], 557 nm. For the same compound, in data set [6], the “Absorption (λmax)” value came to 437 nm. Besides, the “Fluorescence (λem)” value in [6] turned out to be 580 nm.

As for `CN(C)c1ccc(/C=C/C=C/C2=N[C@@H](C(=O)O)CS2)cc1.Cl` [AkaLumine–HCl], the Quantum yield in data set [15] is 4.0 ± 0.5%.

Regarding infraluciferin, the “Longest BL wavelength” value in [16] is above 700 nm.

(Values after publication PMC12668289 (RSC Chemical Biology, 2025).)
